In the NIST ThermoML archive (doi:10.1016/j.fluid.2015.03.048):
± gives the expanded uncertainty stated by the source.

Settings: Liquid; for mass density: 101.33 kPa, Pycnometric method; for viscosity: 100 kPa, Capillary tube (Ostwald / Ubbelohde) method

Row | Compound | mass density (298.15 K) [kg/m3] | viscosity (303.15 K) [mPa·s] | mass density (303.15 K) [kg/m3] | mass density (293.15 K) [kg/m3]
1 | Cc1ccc(Cl)cc1 [4-chlorotoluene] | 1065.14 ± 11 | 0.902 ± 0.012 | – | –
2 | Clc1ccc(Cl)c(Cl)c1 [1,2,4-trichlorobenzene] | – | 1.611 ± 0.015 | 1442.12 ± 14 | –
3 | Cc1cccc(Cl)c1 [3-chlorotoluene] | – | 0.782 ± 0.012 | – | 1072.15 ± 11
4 | Clc1ccccc1Cl [1,2-dichlorobenzene] | – | 1.301 ± 0.014 | 1299.2 ± 13 | –
5 | Clc1cccc(Cl)c1 [1,3-dichlorobenzene] | – | 1.023 ± 0.013 | 1277.16 ± 13 | –
6 | CC(=O)N(C)C [N,N-dimethylethanamide] | – | 0.865 ± 0.012 | 941.35 ± 9.4 | –
7 | Cc1ccccc1Cl [2-chlorotoluene] | – | 0.884 ± 0.012 | 1072.82 ± 11 | –
8 | Cc1ccccc1[N+](=O)[O-] [2-nitrotoluene] | – | 1.908 ± 0.017 | 1153.24 ± 12 | –
9 | Cc1cccc([N+](=O)[O-])c1 [3-nitrotoluene] | – | 1.775 ± 0.016 | 1147.67 ± 12 | –
